Each molecule was assayed on Acanthocheilonema viteae (assay: Antifilarial activity against Dipetalonema viteae after 120 hrs). Conditions: read-out: log(1/EC50) (converted).
Assay type: functional, organism-based

| EC50 | SMILES |
| --- | --- |
| 0.028 µM | O=C(Nc1ccc(Nc2ccc(SC(F)(F)F)cc2)c(Cl)c1)c1cc([N+](=O)[O-])ccc1O |
| > 10 µM | CCCCCCNC(=O)c1cccc(NC=O)c1O |
| > 10 µM | O=C(Nc1ccc(C(O)c2ccccc2)cc1)c1cc([N+](=O)[O-])ccc1O (stereo not drawn) |

Reference: ChEMBL document CHEMBL2046275, “Cellular quantitative structure-activity relationship (Cell-QSAR): conceptual dissection of receptor binding and intracellular disposition in antifilarial activities of Selwood antimycins” (J Med Chem, 2012)
